The values that follow come from patent US20230372272A1, “USE OF CYSTINE AND DERIVATIVES THEREOF AS ANTI-THROMBOTIC AND THROMBOLYTIC AGENTS” (Georgia Tech Research Corporation, priority 2020, published 2023).

In data set [1] the test system is VWF- and platelet-rich white thrombi. The experiment in a line: Lysis of platelet-rich white thrombi in collagen-coated stenotic capillary tube under arterial shear (perfusion of lytic agents). The format is cell-based, Porcine. As to the method:
Collagen Coating: The stenotic glass test sections (inner diameter=1.5 mm) described herein were made by the Chemistry and Biochemistry Glass Shop at Georgia Institute of Technology. The % stenosis by diameter reduction ranged from 60% to 80%. Fibrillar equine collagen (type I; Chrono-Log Corporation, Havertown, PA) was diluted 9:1 in NaCl (Sigma-Aldrich, St. Louis, MO) and incubated in the test section at the stenosis for 24 h in a warm, moist environment (Para, A., Bark, D., Lin, A. & Ku, D. Rapid platelet accumulation leading to thrombotic occlusion. Ann Biomed Eng 39, 1961-1971, 2011; Para, A. N. & Ku, D. N. A low-volume, single pass in-vitro system of high shear thrombosis in a stenosis. Thromb Res 131, 418-424, 2013).
(§1) Blood Collection: Porcine blood was collected at a local abattoir immediately following slaughter into 3.5 U/mL heparin (Thermo Fisher Scientific, Waltham, MA) or 3.2% sodium citrate (Sigma-Aldrich, St. Louis, MO). Whole blood was gently agitated using an Orbit LS shaker (Laboratory Supply Network, Atkinson, NH) until perfusion and used in experiments as soon as possible the same day as collection.
Syringe Perfusion: Lightly heparinized whole blood was perfused through the stenotic test section using a syringe pump. The flow rate was set so that the initial wall shear rate in the stenosis was 3,500 s^−1. A pressure transducer was connected in-line upstream of the stenosis (FIG. 2A). A dissecting microscope with a camera (PCO-Tech Incorporated, Romulus, MI) was used to capture images in real-time during perfusion. Blood perfusion continued until the upstream pressure increased by 30 mmHg (equivalent to an arterial pressure head in vivo) as a result of platelet thrombus formation in the stenotic section. Perfusion with a syringe pump (constant flow rate over constant pressure head) ensured that the thrombi were never fully occlusive, allowing subsequent perfusion for the induction of lysis.
(§2) Pharmacologic Agents: Recombinant human tPA (Sigma-Aldrich, St. Louis, MO), recombinant human ADAMTS-13 (MyBiosource, San Diego, CA), abciximab (ReoPro was kindly provided by Dr. Kevin Maher at Emory/CHOA), NAC (Thermo Fisher Scientific, Waltham, MA), and DiNAC (Cayman Chemical, Ann Arbor, Ml) or control (PBS) treatments were perfused for an hour at a flow rate of 1 ml/min. Agent solutions were made by dissolution or dilution in PBS. The in vitro flow system setup and image acquisition are shown in FIG. 2, and the concentrations of each agent are detailed in Table 2.
Real-time image capture (5 frames per second) of the stenosis continued throughout treatment perfusion.
Data Analysis: The thrombi surface area (which was colored green) was calculated using manual pixel counting in the open-source GNU Image Manipulation Program (GIMP, Version 2.10.8, 1995-2018). Surface area reduction was calculated by % pixel reduction versus the occlusion image. Analysis of variance (ANOVA) was used to test for statistical differences between groups, with the significance set at p<0.05.
In this example, a stenotic capillary tube model, which potentiates VWF- and platelet-rich white thrombi in an arterial setting on a collagen-coated stenosis was used (Para, A., Bark, D., Lin, A. & Ku, D. Rapid platelet accumulation leading to thrombotic occlusion. Ann Biomed Eng 39, 1961-1971, 2011; Ku, D. N. & Flannery, C. J. Development of a flow-through system to create occluding thrombus. Biorheology 44, 273-284, 2007; Para, A. N. & Ku, D. N. A low-volume, single pass in-vitro system of high shear thrombosis in a stenosis. Thromb Res 131, 418-424, 2013) to test lysis of 90% occlusive white thrombi (FIG. 2) and perfused low (2 mM) and high (20 mM) concentrations of NAC and DiNAC solutions. As illustrated in FIG. 2. DiNAC, but not NAC, achieved thrombolysis over 60 minutes of perfusion (FIG. 3A-3D). 2 mM and 20 mM DiNAC lysed most of the thrombi (>95%) within 14 min and 1.5 min, respectively (FIG. 3A-3B).

The test system of data set [2] is fibrin clots from recalcified citrated whole blood. Description: Red clot lysis under stagnant conditions, whole blood clots. The format is cell-based, Porcine. The following applies: whole blood clot, 48 h; DiNAC and NAC at 2 mM.
Text: as §1
(§3) Red clot formation and lysis: Platelet rich plasma (PRP) was made by separating citrated whole blood via gravity over a 2 h period and collecting the supernatant. Separation via gravity was employed instead of centrifugation to avoid platelet damage and activation. Citrated whole blood or PRP was then recalcified with CaCl2 to a final [Ca^2+] of 10 mM (Griffin, M. T., Kim, D. & Ku, D. N. Shear-induced platelet aggregation: 3D-grayscale microfluidics for repeatable and localized occlusive thrombosis. Biomicrofluidics 13, 2019), and 200 μl was transferred into 500 μal centrifuge tubes and allowed to clot and retract for 30 min. The clot was then incubated with 100 μl of either agent or control solution. The treatment solution was exchanged by removing the top 100 μl and replacement with fresh solution at 3, 6, 12, 24, and 48 h of incubation. The weight of the tube was measured immediately post-clot formation and at each timepoint after removal of old solution and prior to the replacement with fresh solution.

In data set [3] the test system is fibrin clots from recalcified platelet rich plasma (PRP). The experiment in a line: Red clot lysis under stagnant conditions, PRP clots. It counts as cell-based, Porcine. The following applies: 48 h, DiNAC and NAC at 2 mM.
Text: as §1, §3

A further data set has as its system white clots. Description: Example 3: thrombolytic activity on white clots, procedures of Examples 1 and 2. The format is cell-based, Porcine. The following applies: DiNAC: clot breakup over 10 minutes; comparators at 1 hour. On the procedure:
In this example, use of DiNAC and other agents as anti-thrombotic agents was tested. A white clot formation in the artery system was modeled by a collagen coated glass capillary tube (Ku DN, Flannery CJ. Development of a flow-through system to create occluding thrombus, Biorheology, 2007; 44(4)273-84). Porcine blood was perfused into the capillary tube using a constant pressure head or a constant flow rate (Para AN, Ku DN. A low-volume, single pass in vitro system of high shear thrombosis in a stenosis, Thrombosis Research, 2013, 131(5):418-24). After clot formation, a thrombolytic agent was perfused into the capillary tube. The detailed capillary tube experimental protocol is summarized below.
In this example, the thrombolytic activity of DiNAC and other lytic agents was tested, using the procedures described in Examples 1 and 2.

The test system of data set [4] is platelet-rich thrombi from heparinized human whole blood. The experiment in a line: Example 4: thrombolysis of human blood thrombi in 3 mm collagen-coated stenotic capillary tubes. It counts as cell-based. The conditions noted are these: human whole blood thrombus. On the procedure: In this example, an in-vitro randomized trial was performed using heparinized human blood in collagen-coated glass capillary tubes with a designed stenosis, mimicking arterial disease. Heparinized human blood was then infused through 3 mm capillary tubes at a constant flow rate, during which near-occlusive thrombi were formed at the region of stenosis (FIG. 11). DiNAC was then infused at a constant flow rate through the capillary tubes in order to observe thrombolytic activity, using a combination of live pressure monitoring and microscopic image capture. All infusions were control-matched with a phosphate-buffered saline solution in lieu of DiNAC.

The nature of another data set: pH of DiNAC solution. The format is physicochemical. On the procedure: as §2
To confirm the efficacy of DiNAC, the dose response was tested at increasing concentrations of 0.02, 0.2, 2, and 20 mM. The thrombus area reduction was dependent on the concentration of DiNAC (FIG. 4). […] Considering the practical use of the DiNAC as a thrombolytic in a clinical setting, the 20 mM DiNAC with sodium bicarbonate to a final pH=7. Neutralization of 20 mM DiNAC reduced the variance from 47% to 12% in surface area reduction (44±47% vs 59±12%, p=0.77, FIG. 4).

The subject of a further data set is FeCl-induced thrombi. The following applies: NAC treatment alone, in vivo mice model; cited from earlier work.
The test system of data set [5] is FeCl3 injury-induced thrombus. Also noted: dose or concentration left out as unconfirmed. The following applies: after a 60 min treatment; FeCl3 injury in vivo; ADAMTS-13; cited from earlier work.

Take `CC(=O)N[C@@H](CSSC[C@H](NC(C)=O)C(=O)O)C(=O)O` [DiNAC, N,N′-diacetyl-cystine]: the “thrombus area vs control” value in data set [1] (0.02 mM, 60 min perfusion) was “not significantly different from the control”. Further, the thrombus area reduction in data set [1] (0.2 mM, 60 min perfusion) is 46±15%. The “thrombus surface area reduction” value was 44±47% in data set [1] (20 mM acidic solution (not neutralized), 60 min perfusion) and 59±12% in data set [1] (20 mM neutralized with sodium bicarbonate to pH=7, 60 min perfusion). The “whole blood clot lysis over 48 h” value in data set [2] is “no effect on red clots”. The “PRP clot lysis over 48 h” value in data set [3] is listed as “no effect on red clots”. Besides, the “thrombolytic activity on white clots” value in the data set with white clots was “highly effective at causing lysis of white clots”. Also, the “time to complete lysis of the white clot” value in data set [4] (20 mM perfusion) was no more than 10 min. Further, the figures for the pH of solution in the data set “pH of DiNAC solution” (2 mM solution) and in the data set “pH of DiNAC solution” (20 mM solution) were 7 and 2, respectively.

With `CC(=O)N[C@@H](CS)C(=O)O` [NAC, N-acetylcysteine, reference compound], in data set [1] (2 mM and 20 mM, 60 min perfusion), the “lysis on perfusion” value was “minimal lysis”. For the same molecule, the “thrombus surface area reduction” value in data set [1] (2 mM, 60 min perfusion) is listed as less than 20%. Besides, in data set [1] (20 mM, 60 min), the “lysis after 60 min perfusion” value is listed as “minimal lysis”. For the same molecule, the “whole blood clot lysis over 48 h” value in data set [2] was “no effect on red clots”. Besides, the “PRP clot lysis over 48 h” value in data set [3] is given as “no effect on red clots”. The “thrombolytic activity on white clots” value with white clots is “minimal effects with no perfusion at 1 hour”. Further, in the data set with FeCl-induced thrombi, the reperfusion is listed as less than 40%.

B1: Abciximab: inhibits platelet thrombus formation by blocking the glycoprotein IIb/IIIa through an antibody (antibody, chains of the INN, looked up, V domains shown)
VH: EVQLQQSGTVLARPGASVKMSCEASGYTFTNYWMHWVKQRPGQGLEWIGAIYPGNSDTSYIQKFKGKAKLTAVTSTTSVYMELSSLTNEDSAVYYCTLYDGYYVFAYWGQGTLVTVSA
VL: EIVLTQSPVTLSVTPGDSVSLSCRASRDISNNLHWFQQTSHESPRLLIKYASQSMSGIPSRFSGSGSGTDFTLSINSVETEDFGMYFCQQTNSWPYTFGGGTKLEIK
modifications: Fab
B1: the “reduction in thrombus area” value in data set [1] ([…] (Table 2), 60 min perfusion) was determined as 22±11%. In the data set on white clots, the “thrombolytic activity on white clots” value was “minimal effects with no perfusion at 1 hour”.

B2: ADAMTS-13: recombinant human ADAMTS-13, a protease that cleaves VWF (protein, UniProt Q76LX8 75-1427, looked up)
A disintegrin and …: AAGGILHLELLVAVGPDVFQAHQEDTERYVLTNLNIGAELLRDPSLGAQFRVHLVKMVILTEPEGAPNITANLTSSLLSVCGWSQTINPEDDTDPGHADLVLYITRFDLELPDGNRQVRGVTQLGGACSPTWSCLITEDTGFDLGVTIAHEIGHSFGLEHDGAPGSGCGPSGHVMASDGAAPRAGLAWSPCSRRQLLSLLSAGRARCVWDPPRPQPGSAGHPPDAQPGLYYSANEQCRVAFGPKAVACTFAREHLDMCQALSCHTDPLDQSSCSRLLVPLLDGTECGVEKWCSKGRCRSLVELTPIAAVHGRWSSWGPRSPCSRSCGGGVVTRRRQCNNPRPAFGGRACVGADLQAEMCNTQACEKTQLEFMSQQCARTDGQPLRSSPGGASFYHWGAAVPHSQGDALCRHMCRAIGESFIMKRGDSFLDGTRCMPSGPREDGTLSLCVSGSCRTFGCDGRMDSQQVWDRCQVCGGDNSTCSPRKGSFTAGRAREYVTFLTVTPNLTSVYIANHRPLFTHLAVRIGGRYVVAGKMSISPNTTYPSLLEDGRVEYRVALTEDRLPRLEEIRIWGPLQEDADIQVYRRYGEEYGNLTRPDITFTYFQPKPRQAWVWAAVRGPCSVSCGAGLRWVNYSCLDQARKELVETVQCQGSQQPPAWPEACVLEPCPPYWAVGDFGPCSASCGGGLRERPVRCVEAQGSLLKTLPPARCRAGAQQPAVALETCNPQPCPARWEVSEPSSCTSAGGAGLALENETCVPGADGLEAPVTEGPGSVDEKLPAPEPCVGMSCPPGWGHLDATSAGEKAPSPWGSIRTGAQAAHVWTPAAGSCSVSCGRGLMELRFLCMDSALRVPVQEELCGLASKPGSRREVCQAVPCPARWQYKLAACSVSCGRGVVRRILYCARAHGEDDGEEILLDTQCQGLPRPEPQEACSLEPCPPRWKVMSLGPCSASCGLGTARRSVACVQLDQGQDVEVDEAACAALVRPEASVPCLIADCTYRWHVGTWMECSVSCGDGIQRRRDTCLGPQAQAPVPADFCQHLPKPVTVRGCWAGPCVGQGTPSLVPHEEAAAPGRTTATPAGASLEWSQARGLLFSPAPQPRRLLPGPQENSVQSSACGRQHLEPTGTIDMRGPGQADCAVAIGRPLGEVVTLRVLESSLNCSAGDMLLLWGRLTWRKMCRKLLDMTFSSKTNTLVVRQRCGRPGGGVLLRYGSQLAPETFYRECDMQLFGPWGEIVSPSLSPATSNAGGCRLFINVAPHARIAIHALATNMGAGTEGANASYILIRDTHSLRTTAFHGQQVLYWESESSQAEMEFSEGFLKAQASLRGQYWTLQSWVPEMQDPQSWKGKEGT
With B2, the thrombus area reduction in data set [1] (1 g/mL (Table 2), 60 min perfusion) was determined as 19±8%. The “whole blood clot lysis over 48 h” value in data set [2] is reported as “no effect on red clots”. In data set [3], the “PRP clot lysis over 48 h” value was “no effect on red clots”. Also, the “thrombolytic activity on white clots” value with white clots was “minimal effects with no perfusion at 1 hour”. The “effect on clots and flow” value in data set [4] (perfusion) is recorded as “did not alter the clots or restore flow”. Also, in data set [5], the “reduction of thrombus size” value is reported as 62.3%.
